15 compounds from US11883383B2, “Pharmaceutically acceptable salts of [3-(4- {2-butyl-1-[4-(4-chloro-phenoxy)-phenyl]-1H-imidazol-4-yl} -phenoxy)-propyl]-diethyl-amine” (vTv Therapeutics LLC, priority 2018, dated 2024) can be followed below.

The nature of the data set: Salt/co-crystal screening: 38 acids, eight solvent systems, solids analysed by XRPD. Particulars: acid/freebase charge 1:1 unless label says 2:1, stirred at RT, else 5° C. slurry, anti-solvent addition or evaporation (footnote marks). In kind it is physicochemical. On the procedure:
XRPD analysis was performed with a Panalytical X'Pert^3 Powder XRPD on a Si zero-background holder. The 2θ position was calibrated against Panalytical Si reference standard disc.
A total of 320 salt/co-crystal screening experiments were conducted using 38 acids (two molar ratios for HCl and HBr) and eight solvent systems. Specifically, freebase stock solutions of ˜100 mg/mL were first prepared in each solvent system. For each experiment, 0.2 mL stock solution and the corresponding acids were mixed in a molar charge ratio of 1:1 (acid/freebase, 2:1 for HCl/freebase and HBr/freebase as well), and then stirred at RT. After stirring for 3-5 days, if precipitation was observed, the precipitate was isolated. It no precipitation, the clear solutions were first transferred to slurry at 5° C. to introduce precipitation. Solutions without any precipitation were further subjected to anti-solvent addition (for solvents in column B/D, 0.5 mL hexane was added; for solvents in column G/H, 0.5 mL water was added; for solvent in column F, 0.5 mL n-heptane was added). If still no precipitation, the final clear solutions were transferred to evaporation at RT to induce precipitation. All solids isolated were vacuum dried at RT for 2 hrs before XRPD analysis.

Each structure is given as a SMILES string.

Take `CCC(=O)O` [Propionic acid]: the “Solid obtained in salt screening (XRPD), solvent D Acetone/Hexane (1:2, v/v)” value is listed as “gel*”; the “Solid obtained in salt screening (XRPD), solvent H Dioxane/H2O (9:1, v/v)” value (“Solid obtained in salt screening … (9:1, v/v)” for short) is recorded as “amorphous*”; the “Solid obtained in salt screening (XRPD), solvent A Ethanol” value (“Solid obtained … solvent A Ethanol” below) is on record as “gel*”; the “Solid obtained in salt screening (XRPD), solvent B Ethyl acetate/Hexane (1:2, v/v)” value is given as “FB Type A”. Moreover, the “Solid obtained in salt screening (XRPD), solvent G Methanol/H2O (19:1, v/v)” value (shortened to “Solid obtained in salt screening … (19:1, v/v)”) is listed as “FB Type A^&”; the “Solid obtained in salt screening (XRPD), solvent F Methyl tertbutyl ether” value is “FB Type B*”; the “Solid obtained in salt screening (XRPD), solvent C THF” value (from here on “Solid obtained … solvent C THF”) is reported as “gel*”; the “Solid obtained in salt screening (XRPD), solvent E Toluene” value (“Solid obtained … solvent E Toluene” below) is reported as “gel*”.
On to `O=C(O)c1cccnc1` [Nicotinic acid], for which the “Solid obtained in salt screening … (9:1, v/v)” value is reported as “amorphous*”; the “Solid obtained … solvent A Ethanol” value is “gel*”; the “Solid obtained in salt screening (XRPD), solvent B Ethyl acetate/Hexane (1:2, v/v)” value was “nicotinic acid”; the “Solid obtained in salt screening … (19:1, v/v)” value is “amorphous*”. Moreover, the “Solid obtained in salt screening (XRPD), solvent F Methyl tertbutyl ether” value is “nicotinic acid” and the “Solid obtained … solvent C THF” value is “gel*”.
With `COc1cc(C=O)ccc1O` [Vanillin], the “Solid obtained in salt screening (XRPD), solvent D Acetone/Hexane (1:2, v/v)” value is given as “gel*”; the “Solid obtained in salt screening … (9:1, v/v)” value is on record as “FB Type A^&”; the “Solid obtained … solvent A Ethanol” value is “gel*”; the “Solid obtained in salt screening (XRPD), solvent B Ethyl acetate/Hexane (1:2, v/v)” value is reported as “gel*”. Also, the “Solid obtained in salt screening … (19:1, v/v)” value is “amorphous^&”; the “Solid obtained in salt screening (XRPD), solvent F Methyl tertbutyl ether” value is listed as “amorphous*”; the “Solid obtained … solvent C THF” value is given as “gel”; the “Solid obtained … solvent E Toluene” value was “gel”.
Regarding `O=C(O)C(O)C(O)C(=O)O` [L-tartartic acid], the “Solid obtained in salt screening … (19:1, v/v)” value is “amorphous*”.
For the compound `O=C(O)CCC(=O)O` [Succnic acid], the “Solid obtained in salt screening (XRPD), solvent D Acetone/Hexane (1:2, v/v)” value was “amorphous*”; the “Solid obtained in salt screening … (9:1, v/v)” value is recorded as “amorphous*”; the “Solid obtained … solvent A Ethanol” value was “gel*”; the “Solid obtained in salt screening (XRPD), solvent B Ethyl acetate/Hexane (1:2, v/v)” value is recorded as “amorphous*”. Also, the “Solid obtained in salt screening … (19:1, v/v)” value is “amorphous*”; the “Solid obtained in salt screening (XRPD), solvent F Methyl tertbutyl ether” value is reported as “FB Type B*”; the “Solid obtained … solvent C THF” value is reported as “gel*”; the “Solid obtained … solvent E Toluene” value is “gel*”.
For `O=C(O)/C=C/c1ccccc1` [trans Cinnamic acid], the “Solid obtained in salt screening (XRPD), solvent D Acetone/Hexane (1:2, v/v)” value is given as “gel”; the “Solid obtained in salt screening … (9:1, v/v)” value is “amorphous*”; the “Solid obtained … solvent A Ethanol” value is on record as “amorphous”; the “Solid obtained in salt screening (XRPD), solvent B Ethyl acetate/Hexane (1:2, v/v)” value is given as “gel”. Besides, the “Solid obtained in salt screening … (19:1, v/v)” value was “amorphous*”; the “Solid obtained in salt screening (XRPD), solvent F Methyl tertbutyl ether” value is reported as “amorphous*”; the “Solid obtained … solvent C THF” value is listed as “gel”; the “Solid obtained … solvent E Toluene” value is on record as “gel”.
Consider `O=C1NS(=O)(=O)c2ccccc21` [Saccharin], for which the “Solid obtained in salt screening (XRPD), solvent D Acetone/Hexane (1:2, v/v)” value is “gel”; the “Solid obtained in salt screening … (9:1, v/v)” value is given as “amorphous*”; the “Solid obtained … solvent A Ethanol” value is “amorphous*”; the “Solid obtained … solvent C THF” value is recorded as “gel”. Moreover, the “Solid obtained … solvent E Toluene” value was “gel”.
Turning to `O=C(O)c1ccccc1O` [Salicyclic acid], the “Solid obtained in salt screening (XRPD), solvent D Acetone/Hexane (1:2, v/v)” value is listed as “amorphous*”; the “Solid obtained in salt screening … (9:1, v/v)” value was “amorphous*”; the “Solid obtained … solvent A Ethanol” value is recorded as “gel*”; the “Solid obtained in salt screening (XRPD), solvent B Ethyl acetate/Hexane (1:2, v/v)” value is “amorphous*”. For the same compound, the “Solid obtained in salt screening … (19:1, v/v)” value was “amorphous*”; the “Solid obtained in salt screening (XRPD), solvent F Methyl tertbutyl ether” value was “amorphous^&”; the “Solid obtained … solvent C THF” value is reported as “gel*”; the “Solid obtained … solvent E Toluene” value is given as “gel*”.
`O=C(O)/C=C\C(=O)O` [Maleic acid]: the “Solid obtained in salt screening … (9:1, v/v)” value is “amorphous*”; the “Solid obtained … solvent A Ethanol” value is “gel*”; the “Solid obtained in salt screening … (19:1, v/v)” value is given as “amorphous*”; the “Solid obtained … solvent C THF” value is recorded as “gel*”. The “Solid obtained … solvent E Toluene” value is listed as “gel*”.
As to `O=S(=O)(O)O` [H2SO4], the “Solid obtained in salt screening (XRPD), solvent D Acetone/Hexane (1:2, v/v)” value is given as “gel”; the “Solid obtained in salt screening … (9:1, v/v)” value is reported as “gel*”; the “Solid obtained … solvent A Ethanol” value is “gel*”; the “Solid obtained in salt screening (XRPD), solvent B Ethyl acetate/Hexane (1:2, v/v)” value is on record as “gel”. For the same compound, the “Solid obtained in salt screening … (19:1, v/v)” value is reported as “gel*”; the “Solid obtained … solvent C THF” value is listed as “gel”; the “Solid obtained … solvent E Toluene” value was “amorphous*”.
Regarding `O=C(O)[C@H](O)[C@@H](O)[C@H](O)[C@H](O)CO` [Gluconic acid], the “Solid obtained in salt screening (XRPD), solvent D Acetone/Hexane (1:2, v/v)” value was “amorphous^&”; the “Solid obtained in salt screening … (9:1, v/v)” value is listed as “amorphous*”; the “Solid obtained … solvent A Ethanol” value is given as “amorphous*”; the “Solid obtained in salt screening (XRPD), solvent B Ethyl acetate/Hexane (1:2, v/v)” value is “gel*”. Further, the “Solid obtained in salt screening … (19:1, v/v)” value is “amorphous*”; the “Solid obtained in salt screening (XRPD), solvent F Methyl tertbutyl ether” value is “amorphous”; the “Solid obtained … solvent C THF” value is “amorphous*”; the “Solid obtained … solvent E Toluene” value is “gel”.
Regarding `O=C(O)c1ccccc1` [Benzoic acid], the “Solid obtained in salt screening (XRPD), solvent D Acetone/Hexane (1:2, v/v)” value was “gel*”; the “Solid obtained in salt screening … (9:1, v/v)” value was “amorphous*”; the “Solid obtained … solvent A Ethanol” value is listed as “gel*”; the “Solid obtained in salt screening (XRPD), solvent B Ethyl acetate/Hexane (1:2, v/v)” value is listed as “gel*”. Besides, the “Solid obtained in salt screening … (19:1, v/v)” value was “amorphous*”; the “Solid obtained in salt screening (XRPD), solvent F Methyl tertbutyl ether” value was “amorphous*”; the “Solid obtained … solvent C THF” value is on record as “gel*”; the “Solid obtained … solvent E Toluene” value is recorded as “gel*”.
Consider `O=C(O)CNC(=O)c1ccccc1` [Hippuric acid], for which the “Solid obtained in salt screening (XRPD), solvent D Acetone/Hexane (1:2, v/v)” value was “amorphous*”; the “Solid obtained in salt screening … (9:1, v/v)” value is “amorphous*”; the “Solid obtained … solvent A Ethanol” value was “gel*”; the “Solid obtained in salt screening … (19:1, v/v)” value is “amorphous*”. For the same compound, the “Solid obtained … solvent C THF” value is “gel*” and the “Solid obtained … solvent E Toluene” value is recorded as “gel*”.
Consider `COc1cc(C(=O)O)ccc1O` [Vanillic acid], for which the “Solid obtained in salt screening … (9:1, v/v)” value is “amorphous*”; the “Solid obtained … solvent A Ethanol” value is recorded as “amorphous”; the “Solid obtained in salt screening … (19:1, v/v)” value is “amorphous*”; the “Solid obtained … solvent C THF” value is recorded as “gel”. The “Solid obtained … solvent E Toluene” value is listed as “gel”.
On to `O=C(O)c1cc(O)ccc1O` [Gentisic acid], for which the “Solid obtained … solvent A Ethanol” value is on record as “gel*” and the “Solid obtained … solvent C THF” value is “gel*”.
